According to PMC5640650, “NatD promotes lung cancer progression by preventing histone H4 serine phosphorylation to activate Slug expression” (Nature Communications, 2017):

Tests used:
LLC cells [1] = experiment: Orthotopic implantation in C57BL/6 mice, LLC cells; assay type: in vivo, murine; conditions: pleural cavity, 14 days, n = 5, vs Scr
Method: All animal care and handling procedures were performed in accordance with the National Institutes of Health Guide for the Care and Use of Laboratory Animals, and were approved by the Institutional Review Board of Nanjing University (Nanjing, China). Female SCID mice and C57BL/6 mice (6–8 week old) were purchased from the Model Animal Research Center of Nanjing University (Nanjing, China), and were maintained under specific pathogen-free conditions at Nanjing University. The sample size was chosen with adequate power on the basis of the literature and our previous experience[46] and for each experiment it is indicated in the figure legend. Prior to carrying out the experiment, mice were randomly assigned to two different treatment groups (NatD-KD or Scr). For xenograft studies, 1 × 10^6 cells were resuspended in 100 µl PBS and injected into the lateral tail vein. Lung nodules and progression were monitored and quantified using the bioluminescence system (Caliper IVIS Lumina XR) or by counting under a dissecting microscope. […] Mice were killed at day 28 or day 30 to collect lungs, and lung nodules in serial sections were quantified microscopically. […] Lung nodules and progression were monitored and quantified using the bioluminescence system (Caliper IVIS Lumina XR). Mice were killed at day 14 or day 21 to collect lungs, and lung nodules in serial sections were quantified microscopically. […]

LLC cells [2] = experiment: Expression of EMT genes, LLC cells; assay type: cell-based, murine; conditions: vs Scr
Method: Cellular proteins were extracted by RIPA lysis buffer at high salt concentration (420 mM NaCl), and western blot analysis was performed in accordance with standard protocols. Scans of enhanced chemiluminescence (ECL) films showing uncropped blots are presented in Supplementary Fig. 10. […]
Total RNA from tissue samples and cultured cells was extracted using TRIzol reagent (Invitrogen). cDNAs were synthesized with a HiScript 1st Strand cDNA Synthesis Kit (Vazyme Biotech, China). Quantitative RT-PCR was performed using a FastStart Universal SYBR Green Master (Roche) according to the manufacturer’s instructions in a Rotor-Gene 6000 (Corbett Research) in a final volume of 20 μl. […]
Representative blots from three independent experiments. […] (bottom) Cell migration and invasion expressed as a percentage of Scr control. […]
Results are shown as mean ± s.d. from 5 mice; two-tailed Student’s t-test, **P<0.01 compared to Scr control. (e) Quantitative real-time PCR analysis of mRNA levels of NatD and key EMT-related genes in Scr control and NatD-KD LLC cells normalized to GAPDH. […]

## NatD-KD2: Human NatD shRNA KD2: 5′-GGTTGAATGTCTCCATTGA-3′, lentiviral (shRNA lentiviral)
LLC cells [1]
  migration and invasion, orthotopic model: significantly reduced
LLC cells [2]
  expression of E-cadherin: increased the expression
  expression of Slug, N-cadherin, and Vimentin: decreased the expression
